Reference: patent publication EP1092438B1, “Pharmaceutical compositions containing growth-hormone inhibitors or their biologically active fragments for the treatment of uterine myomas” (De Leo, Vincenzo, priority 1999, dated 2006)

Test: Routine blood parameters before and after treatment
Format: in vivo
Conditions: person
From the text: TABLE 1 Example 1 (patient)

Compound: CC(C)[C@@H]1NC(=O)[C@H](CCCCN)NC(=O)[C@@H](Cc2c[nH]c3ccccc23)NC(=O)[C@H](Cc2ccc(O)cc2)NC(=O)[C@@H](NC(=O)[C@H](N)Cc2ccc3ccccc3c2)CSSC[C@@H](C(=O)N[C@H](C(N)=O)[C@@H](C)O)NC1=O [Lanreotide]
- routine blood parameters: remained unvaried
